From patent publication US20200171042A1, “BRAIN-PENETRANT CHROMONE OXIME DERIVATIVE FOR THE THERAPY OF LEVODOPA-INDUCED DYSKINESIA” (Prexton Therapeutics SA, priority 2015, published 2020)

Assays:
CLD MPTP macaque model = experiment: Variable Delayed Response (VDR) task, cognitive performance of CLD MPTP monkeys; format: in vivo, Macaca fascicularis
Description: Monkeys that receive chronic low doses of MPTP administration (CLD MPTP macaque model) develop cognitive impairment, as measured in the Variable Delayed Response (VDR) task. It was therefore decided to evaluate the cognitive impact of PXT002331 in these animals, in order to assess potential side effects on cognitive symptoms.

[1] = tested on: MPTP macaque model of Parkinson's disease; experiment: MPTP macaque model of advanced stages of PD; format: in vivo, Macaca fascicularis
Protocol: The anti-parkinsonian efficacy of the compound of formula (I) according to the present invention (i.e., PXT002331) was evaluated in the 1-methyl-4-phenyl-1,2,3,6-tetrahydropyridine (MPTP) macaque model of Parkinson's disease (using macaques of the species Macaca fascicularis), which reproduces most of the clinical and pathological hallmarks of Parkinson's disease and is considered a “gold standard” (see Porras G et al., Cold Spring Harb Perspect Med., 2(3):a009308, 2012 and references cited therein for a general description of the MPTP model). […] The anti-parkinsonian efficacy of PXT002331 (25 mg/kg) was further evaluated in combination with low (suboptimal) doses of L-dopa (levodopa; 4-9 mg/kg) (see FIGS. 5B and 5C). In this model, levodopa methyl ester was administered sub-cutaneously together with a fixed dose of benserazide (50 mg total), a peripherally-acting levodopa decarboxylase inhibitor. Doses of PXT002331 were orally administered twice a day during 4 days, and assessment of parkinsonian scores took place at day 4 (between 1 and 2 h after L-dopa administration, i.e., between 2 and 3 h after PXT002331 administration). […] The results of a dose-response evaluation of the combination of PXT002331 (at doses from 2 mg/kg to 100 mg/kg) with L-dopa (low dose) are shown in FIG. 5D (the assessment of parkinsonian scores took place at day 4).

[2] = tested on: CLD MPTP macaque model of early-stage PD; experiment: chronic low doses of MPTP (CLD MPTP) macaque model of early-stage PD; format: in vivo, Macaca fascicularis
Protocol: In this model, levodopa was administered orally as Madopar which contains benserazide hydrochloride (4:1 ratio of levodopa:benserazide), a peripherally-acting levodopa decarboxylase inhibitor. In this experiment, each monkey was equipped with a detector of movements and signals were collected with 24 light beams and a video track recorder in order to discriminate all types of movements. The movements of each monkey were quantified every 5 min using computer-based activity monitors. Total values are presented over 4 hours.

[3] = in vivo pharmacokinetics in rats (plasma and brain exposure); design: species or system male Sprague-Dawley rats; conditions: rat
Protocol: PXT002331 and PXT001858 were administered per os (p.o.) at 10 mg/kg to male Sprague-Dawley rats. Volume of administration was 10 ml/kg. In parallel, PXT002331 was also administered intravenously (i.v.) at 1 mg/kg, with a volume of administration of 2 ml/kg. Blood samples (200 μl) were collected at time ranging from 15 minutes to 24 hours for the p.o. administration and from 5 minutes to 24 hours for the i.v. administration in ice-cold tubes containing 0.2% K2EDTA. Tubes were centrifuged at 10,000 rpm for 5 minutes at 4° C. The plasma (supernatant) was separated in another tube and stored at −80° C. until analysis. Two groups of 3 animals were used for each route of administration: in one group, blood samples were collected to determine the kinetics of plasma exposure over a 24-hour period, and in the second group, blood and brain were collected at one terminal time point (0.5, 1.0, 1.5, 2.0, 4.0 hours) to determine the kinetics of brain exposure and brain/plasma ratio.
The respective parent compound (free base) was analysed in plasma samples and in brain homogenate using a LC-MS/MS method. Concentrations are expressed in ng/ml of plasma or in ng/g of brain tissue.

[4] = phase I metabolic stability, CL (r); format: in vitro ADME; conditions: rat; r of CL (h/r)
Protocol: (§1) The in vitro ADME profile of PXT002331 was also very similar with reference to phase I metabolic stability: CL (h/r): 55/101 μl/min/mg protein and intestinal absorption: CaCo-2 (A-B, pgp): 4.11 .10-6 cm/s, no efflux.

[5] = tested on: UGT (UDP-Glucuronosyl transferase); experiment: in vitro glucuronidation in rat liver microsomes; format: in vitro ADME; conditions: in vitro in the presence of UGT
Protocol: Despite their similar oral absorption, PXT002331 has a higher brain/plasma ratio (6.5 versus 2.0 at T=1.5 h; see FIG. 4) leading to a 3-fold improvement in the brain AUC when compared to PXT001858. A posteriori, one potential hypothesis might rely on the difference of phase II conjugation in the intestine and liver during oral absorption. […] Nonetheless, this difference observed in vitro cannot by itself explain the unexpected advantageous PK results obtained with PXT002331. The results obtained in these experiments are furthermore summarized in Tables 1 to 3 below and in FIGS. 1 to 4.

plasma protein binding = format: in vitro ADME; conditions: read-out: plasma protein binding, free fraction
human mGluR4 = human mGluR4 (Homo sapiens, UniProt Q14833); experiment: calcium assay, agonistic and/or positive allosteric modulator activity; format: cell-based; conditions: read-out: EC50 (corresponding to pEC50) (converted)
human mGluR4, sequence (Q14833 33-912): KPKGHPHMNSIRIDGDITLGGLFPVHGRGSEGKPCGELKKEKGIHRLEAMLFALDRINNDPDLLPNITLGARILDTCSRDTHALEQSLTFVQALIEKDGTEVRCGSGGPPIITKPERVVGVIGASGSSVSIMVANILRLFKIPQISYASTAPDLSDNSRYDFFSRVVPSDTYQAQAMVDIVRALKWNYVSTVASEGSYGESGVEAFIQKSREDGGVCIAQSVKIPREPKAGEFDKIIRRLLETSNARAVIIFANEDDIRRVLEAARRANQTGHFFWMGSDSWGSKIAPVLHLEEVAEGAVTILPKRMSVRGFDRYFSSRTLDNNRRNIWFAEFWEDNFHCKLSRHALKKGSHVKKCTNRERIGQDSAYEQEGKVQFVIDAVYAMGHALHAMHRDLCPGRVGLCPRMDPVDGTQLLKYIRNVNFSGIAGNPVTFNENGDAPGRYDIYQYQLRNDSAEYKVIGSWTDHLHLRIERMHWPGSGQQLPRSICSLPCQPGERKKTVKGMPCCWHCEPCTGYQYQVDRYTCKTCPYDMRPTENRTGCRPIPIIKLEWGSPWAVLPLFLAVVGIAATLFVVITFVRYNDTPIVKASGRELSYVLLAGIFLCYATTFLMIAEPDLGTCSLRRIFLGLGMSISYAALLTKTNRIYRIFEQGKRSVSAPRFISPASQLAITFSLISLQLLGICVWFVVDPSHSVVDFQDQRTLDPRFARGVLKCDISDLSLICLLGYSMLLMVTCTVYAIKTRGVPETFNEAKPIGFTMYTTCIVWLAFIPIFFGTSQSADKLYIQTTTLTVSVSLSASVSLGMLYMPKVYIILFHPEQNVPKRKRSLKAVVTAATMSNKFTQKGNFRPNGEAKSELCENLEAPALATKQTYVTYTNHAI
Protocol: The compound of formula (I) according to the invention (i.e., PXT002331) was tested for its agonistic and/or positive allosteric modulator activity on human mGluR4 using the calcium assay described in Example 171 of WO 2011/051478.

[6] = tested on: MPTP macaque model of L-DOPA-induced dyskinesia; experiment: MPTP macaque model of L-DOPA-induced dyskinesia (LID); format: in vivo
Protocol: Like PD patients, MPTP macaques experience side effects of their long-term L-DOPA therapy, including L-DOPA-induced dyskinesia (LID). This was the case with the MPTP macaques that were at an advanced stage of parkinsonism used in this experiment. PXT002331 was tested in these monkeys, using the dose of 25 mg/kg in combination with L-DOPA.
Moreover, this was observed as early as day 1, which corresponds to an acute administration of PXT002331, and is maintained after a sub-chronic treatment (twice daily for 8 consecutive days). Importantly, the efficacy of L-DOPA for reducing parkinsonian symptoms (tremor, posture, mobility) was maintained in association with PXT002331 dose, as shown in FIG. 9B.

[7] = intestinal absorption CaCo-2 (A-B, pgp); format: in vitro ADME; conditions: human, Caco-2; A-B
Protocol: as §1

CaCo-2 = experiment: intestinal absorption CaCo-2 (A-B, pgp); format: in vitro ADME; conditions: pgp
Protocol: as §1

solubility in water = format: physicochemical; conditions: as hydrochloride salt
MPTP macaques = experiment: general behavior, adverse events in MPTP macaques; format: in vivo, Macaca fascicularis; conditions: alone or with L-DOPA, even at high doses
Protocol: Adverse events and side effects of PXT002331 were analyzed during each study performed in macaques (see Example 3).

[8] = phase I metabolic stability, CL (h); format: in vitro ADME; conditions: human; h of CL (h/r)
Protocol: as §1

[9] = p.o. 10 mg/kg, vehicle Tween-80/Ethanol/30% HPBCD (2/10/88)

## N[C@@H](Cc1ccc(O)c(O)c1)C(=O)O [L-DOPA, L-3,4-dihydroxyphenylalanine, reference compound]
CLD MPTP macaque model; one out of four animals, optimal dose of L-DOPA alone
  omissions in VDR task: ~100%
[1]; highest doses of L-DOPA
  dyskinesia (mean dyskinesia score): very mild
[1]; sub-optimal doses of L-DOPA
  dyskinesia: weak or absent
[2]; L-DOPA alone, model of early stage PD
  induction of dyskinesia: did not induce dyskinesia

## O/N=c1\cc(-c2cc3sccc3cn2)oc2ccc(OCCN3CCOCC3)cc12 [PXT001858, reference compound]
[3]; oral 10 mg/kg
  Brain AUC inf: 838 ng·h/g
  Cmax (Brain): 521 ng/G tissue

## O/N=c1\cc(-c2cc3sccc3cn2)oc2ccc(CCCN3CCOCC3)cc12 [PXT002331, 6-(3-morpholin-4-yl-propyl)-2-(thieno[3,2-c]pyridin-6-yl)-4H-chromen-4-one oxime]
[4]
  microsomal CLint: 101 µL/min/mg
[5]
  level of glucuronidation compared to PXT001858: much lower level of glucuronidation
CLD MPTP macaque model; PXT002331 25 mg/kg alone or in combination with L-DOPA, N=4
  worsening of cognitive performances in VDR task: none of the treatments with PXT002331, alone or in combination with L-DOPA, induced any worsening of the cognitive performances
CLD MPTP macaque model; one out of four animals, PXT002331 25 mg/kg added to optimal dose of L-DOPA
  omission rate in VDR task, change on adding PXT002331: decreased by half
[1]; PXT002331 25 mg/kg + low dose L-dopa, day 4
  robustness: monkeys improving in parkinsonian score: all treated monkeys showed a significant improvement in parkinsonian score
[1]; PXT002331 25 mg/kg p.o. twice a day 4 days + suboptimal L-dopa 4-9 mg/kg, day 4
  parkinsonian score versus L-dopa (suboptimal dose) alone: considerable improvement in parkinsonian score
[1]; PXT002331 2 to 100 mg/kg oral + L-dopa (low dose), day 4
  anti-parkinsonian effect, dose-response evaluation: highly potent anti-parkinsonian effect
[1]; PXT002331 alone, any of the doses tested, more advanced stages of PD
  induction of dyskinesia: did not induce dyskinesia
[1]; added to sub-optimal doses of L-DOPA, any dose tested
  change of dyskinesia by PXT002331 treatment: not increased
[1]; stand-alone treatment, p.o. twice a day for 4 days, score at day 4 over 2 h, n=7
  anti-parkinsonian activity (parkinsonian score): potent anti-parkinsonian activity
Plasma protein binding
  fraction unbound: < 0.01
Human mGluR4
  EC50: ~76 nM
[6]; PXT002331 25 mg/kg + L-DOPA, 30 min before or same time, day 1 and day 8 (twice daily)
  dyskinesia (mean dyskinesia score over 2 hours): clear reduction of dyskinesia
[6]; PXT002331 25 mg/kg + L-DOPA, N=4 dyskinetic animals
  robustness: dyskinetic monkeys responding: each and every dyskinetic monkey included in the study responded to treatment
[6]; in association with PXT002331 25 mg/kg
  efficacy of L-DOPA for reducing parkinsonian symptoms (tremor, posture, mobility): maintained
[7]
  Papp A→B: 4.11 ×10⁻⁶ cm/s
CaCo-2
  CaCo-2 efflux: no efflux
Solubility in water
  solubility: > 10000 µg/mL
[2]; CLD MPTP macaques, PXT002331 alone or in combination with any doses of L-DOPA tested
  induction of dyskinesia: no induction of dyskinesia
[2]; PXT002331 25 mg/kg + L-dopa
  robustness: monkeys responding in locomotor activity: each and every monkey included in the study responded
[2]; PXT002331 25 mg/kg oral + low or optimal dose of L-dopa (Madopar), total over 4 hours, N=5
  locomotor activity: significant improvement in locomotor activity
[2]; PXT002331 25 to 100 mg/kg + optimal (high) dose of L-dopa
  induction of dyskinesia: without inducing dyskinesia
[2]; increasing doses of PXT002331 + L-dopa (optimal dose)
  disability score: improvement in the disability score
MPTP macaques
  adverse change in behavior (circling, excitement, lethargy, sleepiness): never induced any apparent adverse change in behavior
[8]
  microsomal CLint: 55 µL/min/mg
[3]; male, Sprague-Dawley, brain, oral 10 mg/kg, T = 1.5 h, read-out: Brain/Plasma ratio (T = 1.5 h)
  Kp at 1.5 h: 6.5
[3]; male, Sprague-Dawley, plasma, oral, p.o. 10 mg/kg vs i.v. 1 mg/kg
  bioavailability: 39%
[3]; male, Sprague-Dawley, plasma, oral 10 mg/kg
  AUC(0-inf): 432 ng·h/mL
[3]; oral 10 mg/kg
  Brain AUC inf: 2713 ng·h/g
  Cmax (Brain): 818 ng/G tissue
  improvement in brain AUC compared to PXT001858: 3 fold
[3]; [9]
  plasma exposure AUC relative to PXT001858: 1.1 fold
  plasma exposure Cmax relative to PXT001858: 0.7 fold
